# Measured values: patent US10149809B2, “Skin aging inhibitor and concentrate of resveratrol 3-O-α-glucoside” (priority 2014, dated 2018)
# Legend:
# [1] = Solubility in solvent containing 1,2-hexanediol; format: physicochemical
# Procedure: (§1) Approximately 40 mg each of resveratrol 3-O-α-glucoside, resveratrol (Tokyo Chemical Industry Co., Ltd.), and resveratrol 3-O-β-glucoside (Tokyo Chemical Industry Co., Ltd.) was weighed, approximately 70 mg of a solvent (whose composition is shown in Table 18) containing ethanol (Wako Pure Chemical Industries, Ltd.) was added thereto, and the mixture was soaked in a water bath at 25° C. under light-tight conditions, and incubated for 15 hours with occasional stirring. After 15 hours, each of the samples was filtered through a 0.45 μm centrifugal filter, and then the concentration of each of the components in the filtrate was analyzed using HPLC under the same conditions as those described in Production Example 1 above. The dissolved concentration (w/v %) at 25° C. was thus determined.
# The solubility of resveratrol 3-O-α-glucoside was evaluated under the same conditions as those described in Example 18 above, except that a solvent (whose composition is shown in Table 24) containing 1,2-hexanediol (Kankosha Co., Ltd.) was used.
# [2] = Solubility in solvent containing dipropylene glycol; format: physicochemical
# Procedure: as §1
# The solubility of resveratrol 3-O-α-glucoside was evaluated under the same conditions as those described in Example 18 above, except that a solvent (whose composition is shown in Table 22) containing dipropylene glycol (Asahi Glass Co., Ltd.) was used.
# sirtuin 1 gene = experiment: Sirtuin 1 gene expression-promoting effect (2); format: cell-based; settings: normal human epidermal keratinocytes, 0.001 wt %, 33 hours, medium without hydrocortisone; control = 100%
# Procedure: Normal human epidermal keratinocytes were seeded into 12-well culture plates at 5×10^4 cells per well. As the medium, EpiLife KG-2 medium supplemented with insulin, hEGF, hydrocortisone, anti-microbial agents, and BPE was used (basal medium), and the cells were preincubated in 5% CO2 at 37° C. for 48 hours. The medium was removed, and then replaced with a sample medium obtained by removing hydrocortisone from the above-described basal medium, and by supplementing the resulting medium with resveratrol 3-O-α-glucoside to a concentration of 0.001 wt %, and the cells were cultured in 5% CO2 at 37° C. For comparison, the cells were cultured under the same conditions as described above, except that resveratrol 3-O-α-glucoside in the sample medium was replaced by resveratrol 3-O-β-glucoside. After 33 hours of culture, total RNA was extracted from the cells, and the level of expression of the sirtuin 1 gene was quantified by real time PCR. As a control group, cells were cultured without resveratrol 3-O-α-glucoside or resveratrol 3-O-β-glucoside, and total RNA collected from these cells was used. Taking as 100% the level of expression of the sirtuin 1 gene for the control group, a relative ratio of the expression level of the sirtuin 1 gene for the resveratrol 3-O-α-glucoside- or resveratrol 3-O-β-glucoside-supplemented group (SIRT 1 gene expression ratio, %) was determined. […]
# [3] = tested on: matrix metalloproteinase 9 (MMP9) gene; experiment: MMP9 gene expression in the epidermis (three-dimensional human skin model); format: cell-based; settings: 100 μL, 8 hours, distilled water control = 100%
# Procedure: Using a three-dimensional human skin model, the effect of resveratrol 3-O-α-glucoside on the matrix metalloproteinase 9 (MMP9) gene expression in the epidermis was investigated.
# An aqueous solution containing resveratrol 3-O-α-glucoside at a concentration of 0.02 or 0.1 wt %, or containing resveratrol 3-O-β-glucoside at a concentration of 0.02 wt % was prepared, and the resulting solution was used as a sample solution. One-hundred microliters of the sample solution were administered to the horny layer side of the human skin model (EpiDerm EPI-200; MatTek), and cultured in 5 mL of a special medium (EPI-100-ASY) at 37° C. for 8 hours. After the culture, total RNA was extracted from the skin model, and the level of expression of the MMP9 gene was quantified by real time PCR. As a control group, distilled water was administered to a skin model instead of the sample solution, and total RNA collected from the skin model was used.
# Taking as 100% the level of expression of the MMP9 gene for the control group, a relative ratio of the expression level of the MMP9 gene for the resveratrol 3-O-α-glucoside- or resveratrol 3-O-β-glucoside-supplemented group (MMP9 gene expression ratio, %) was determined. In the measurement of the expression level of the MMP9 gene, PPIA was used for internal standard correction.
# [4] = Solubility in solvent containing 1,2-pentanediol; format: physicochemical
# Procedure: as §1
# The solubility of resveratrol 3-O-α-glucoside was evaluated under the same conditions as those described in Example 18 above, except that a solvent (whose composition is shown in Table 23) containing 1,2-pentanediol (Kankosha Co., Ltd.) was used.
# [5] = Absorption when orally ingested: converted resveratrol concentration in plasma; format: in vivo, human
# Procedure: Blood concentrations of resveratrol metabolites when resveratrol 3-O-α-glucoside and resveratrol 3-O-β-glucoside were orally ingested were examined, and the absorption properties of resveratrol 3-O-α-glucoside and resveratrol 3-O-β-glucoside were compared.
# To 100 mL of water, 86 mg of resveratrol 3-O-α-glucoside or resveratrol 3-O-β-glucoside (Tokyo Chemical Industry Co., Ltd.) was added, and the mixture was stirred for 1 minute. The resulting solution was orally ingested by a subject at a time. Blood was collected prior to, 30 minutes after, and 1, 2, 3, and 4 hours after the ingestion, and the plasma was separated by centrifugation. The test was performed three times for each of the samples. In order to quantify the amount of resveratrol derivatives in the collected plasma samples, 10 μL of β-glucronidase Type H-2 from Sigma-Aldrich Co. LLC. (glucuronidase activity: 115003 units/mL, sulfatase activity: 556 units/mL; a 5-fold diluted solution in a 100 mM acetate buffer solution (pH 5.5)) was added to 10 μL of the collected plasma, and enzyme treatment was performed at 37° C. for about 18 hours. After the reaction, 80 μL of 60% acetonitrile was added, and subsequently 100 μL of water was further added thereto, and the mixture was stirred. The filtrate obtained by filtering through a membrane (0.45 μm) was subjected to HPLC analysis. A converted resveratrol concentration was determined by converting the concentration of resveratrol derivatives in each of the plasma samples into the concentration of resveratrol, and maximum blood concentrations and areas under the curve (AUCs) 0 to 4 hours after the ingestion were determined.
# [6] = Solubility in solvent containing 1,3-butylene glycol; format: physicochemical
# Procedure: as §1
# The solubility of resveratrol 3-O-α-glucoside was evaluated under the same conditions as those described in Example 18 above, except that a solvent (whose composition is shown in Table 21) containing 1,3-butylene glycol (Wako Pure Chemical Industries, Ltd.) was used.
# [7] = EpiDerm EPI-200, 0.02 wt % aqueous solution
structure (smiles),measurement,setting,value
"OC[C@H]1O[C@H](Oc2cc(O)cc(C=Cc3ccc(O)cc3)c2)[C@H](O)[C@@H](O)[C@@H]1O [Resveratrol 3-O-α-Glucoside, resveratrol 3-O-α-glucoside]",dissolved concentration,[1],exceeded 25 w/v %
same,dissolved concentration,[2],exceeded 30 w/v %
same,SIRT 1 Gene Expression Ratio (%),sirtuin 1 gene,141%
same,MMP9 Gene Expression Ratio (%),[3]; [7],85%
same,MMP9 Gene Expression Ratio (%),"[3]; EpiDerm EPI-200, 0.1 wt % aqueous solution",66%
same,dissolved concentration,[4],exceeded 20 w/v %
same,AUC relative to resveratrol 3-O-β-glucoside,"[5]; human, in vivo, po, 86 mg",2.8 times
same,dissolved concentration,[6],exceeded 20 w/v %
"OC[C@H]1O[C@@H](Oc2cc(O)cc(/C=C/c3ccc(O)cc3)c2)[C@H](O)[C@@H](O)[C@@H]1O [Resveratrol 3-O-β-Glucoside, resveratrol 3-O-β-glucoside]",Dissolved Concentration (w/v %) at 25° C.,"[1]; 1,2-Hexanediol:Water 0:100 (weight ratio)",0.04 w/v %
same,Dissolved Concentration (w/v %) at 25° C.,"[1]; 1,2-Hexanediol:Water 5:95 (weight ratio)",0.1 w/v %
same,Dissolved Concentration (w/v %) at 25° C.,"[1]; 1,2-Hexanediol:Water 10:90 (weight ratio)",0.5 w/v %
same,Dissolved Concentration (w/v %) at 25° C.,"[1]; 1,2-Hexanediol:Water 25:75 (weight ratio)",2.6 w/v %
same,Dissolved Concentration (w/v %) at 25° C.,"[1]; 1,2-Hexanediol:Water 50:50 (weight ratio)",6.5 w/v %
same,Dissolved Concentration (w/v %) at 25° C.,"[1]; 1,2-Hexanediol:Water 75:25 (weight ratio)",7.9 w/v %
same,Dissolved Concentration (w/v %) at 25° C.,"[1]; 1,2-Hexanediol:Water 90:10 (weight ratio)",10.7 w/v %
same,Dissolved Concentration (w/v %) at 25° C.,"[1]; 1,2-Hexanediol:Water 100:0 (weight ratio)",3.2 w/v %
same,Dissolved Concentration (w/v %) at 25° C.,[2]; Dipropylene Glycol:Water 0:100 (weight ratio),0.04 w/v %
same,Dissolved Concentration (w/v %) at 25° C.,[2]; Dipropylene Glycol:Water 5:95 (weight ratio),0.06 w/v %
same,Dissolved Concentration (w/v %) at 25° C.,[2]; Dipropylene Glycol:Water 10:90 (weight ratio),0.1 w/v %
same,Dissolved Concentration (w/v %) at 25° C.,[2]; Dipropylene Glycol:Water 15:85 (weight ratio),0.3 w/v %
same,Dissolved Concentration (w/v %) at 25° C.,[2]; Dipropylene Glycol:Water 20:80 (weight ratio),0.5 w/v %
same,Dissolved Concentration (w/v %) at 25° C.,[2]; Dipropylene Glycol:Water 25:75 (weight ratio),0.9 w/v %
same,Dissolved Concentration (w/v %) at 25° C.,[2]; Dipropylene Glycol:Water 50:50 (weight ratio),11.5 w/v %
same,Dissolved Concentration (w/v %) at 25° C.,[2]; Dipropylene Glycol:Water 75:25 (weight ratio),26.1 w/v %
same,Dissolved Concentration (w/v %) at 25° C.,[2]; Dipropylene Glycol:Water 90:10 (weight ratio),23.9 w/v %
same,Dissolved Concentration (w/v %) at 25° C.,[2]; Dipropylene Glycol:Water 100:0 (weight ratio),15.0 w/v %
same,SIRT 1 Gene Expression Ratio (%),sirtuin 1 gene,120%
same,MMP9 Gene Expression Ratio (%),[3]; [7],124%
same,Dissolved Concentration (w/v %) at 25° C.,"[4]; 1,2-Pentanediol:Water 0:100 (weight ratio)",0.04 w/v %
same,Dissolved Concentration (w/v %) at 25° C.,"[4]; 1,2-Pentanediol:Water 10:90 (weight ratio)",0.2 w/v %
same,Dissolved Concentration (w/v %) at 25° C.,"[4]; 1,2-Pentanediol:Water 25:75 (weight ratio)",2.3 w/v %
same,Dissolved Concentration (w/v %) at 25° C.,"[4]; 1,2-Pentanediol:Water 50:50 (weight ratio)",7.5 w/v %
same,Dissolved Concentration (w/v %) at 25° C.,"[4]; 1,2-Pentanediol:Water 75:25 (weight ratio)",11.3 w/v %
same,Dissolved Concentration (w/v %) at 25° C.,"[4]; 1,2-Pentanediol:Water 90:10 (weight ratio)",9.4 w/v %
same,Dissolved Concentration (w/v %) at 25° C.,"[4]; 1,2-Pentanediol:Water 100:0 (weight ratio)",4.6 w/v %
same,Maximum Plasma Concentration,"[5]; 86 mg in 100 mL water orally, one subject, three tests, converted resveratrol concentration after glucuronidase/sulfatase treatment",282 ng/mL
same,Area under the Curve ((mg/L) · Hr),"[5]; 86 mg orally, 0 to 4 hours after ingestion, converted resveratrol concentration",0.9 (mg/L) · Hr
same,Dissolved Concentration (w/v %) at 25° C.,"[6]; 1,3-Butylene Glycol:Water 0:100 (weight ratio)",0.04 w/v %
same,Dissolved Concentration (w/v %) at 25° C.,"[6]; 1,3-Butylene Glycol:Water 5:95 (weight ratio)",0.04 w/v %
same,Dissolved Concentration (w/v %) at 25° C.,"[6]; 1,3-Butylene Glycol:Water 10:90 (weight ratio)",0.07 w/v %
same,Dissolved Concentration (w/v %) at 25° C.,"[6]; 1,3-Butylene Glycol:Water 15:85 (weight ratio)",0.1 w/v %
same,Dissolved Concentration (w/v %) at 25° C.,"[6]; 1,3-Butylene Glycol:Water 20:80 (weight ratio)",0.2 w/v %
same,Dissolved Concentration (w/v %) at 25° C.,"[6]; 1,3-Butylene Glycol:Water 25:75 (weight ratio)",0.3 w/v %
same,Dissolved Concentration (w/v %) at 25° C.,"[6]; 1,3-Butylene Glycol:Water 50:50 (weight ratio)",2.8 w/v %
same,Dissolved Concentration (w/v %) at 25° C.,"[6]; 1,3-Butylene Glycol:Water 75:25 (weight ratio)",7.5 w/v %
same,Dissolved Concentration (w/v %) at 25° C.,"[6]; 1,3-Butylene Glycol:Water 90:10 (weight ratio)",9.7 w/v %
same,Dissolved Concentration (w/v %) at 25° C.,"[6]; 1,3-Butylene Glycol:Water 100:0 (weight ratio)",7.2 w/v %
